Values joined by “and” are separate entries in the source; they are usually repeats but may differ in a detail not shown here. Equal entries are not always repeated. Structures can show the parent of a compound that is named as a salt. Where two headings read alike, the source gives them in different places.
Key:
NLRP3 inflammasome = target: T1, NLRP3 inflammasome (Mus musculus, UniProt Q8R4B8); experiment: IL-1β release from LPS-primed BMDCs (ELISA) as readout of NLRP3 inflammasome activation; assay type: cell-based
T1 construct: endogenous in cells; host or cells: primary mouse bone marrow-derived dendritic cells (BMDCs), LPS-primed
In short: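 NLRP3 inflammasome activation was read out as IL-1β released into the supernatant, measured by ELISA. Murine BMDCs were primed with LPS (50 ng ml^−1, 3 hours), then incubated with compounds for 3 hours, with each condition run in three technical replicates. Nigericin at 5 μM acted as the positive control activator, and IL-1β release was also expressed as a percentage of that control.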

BMDCs = experiment: LDH release (lytic cell death, pyroptosis) from LPS-primed BMDCs; assay type: cell-based, mouse; conditions: for cytotoxicity at 5 µM / cytotoxicity at 50 µM / cytotoxicity at 100 µM / cytotoxicity at 25 µM / cytotoxicity at 75 µM: Mus musculus, BMDC; for Average (% positive control): LDH release
In short: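 Mouse BMDCs (7-9 days differentiated, GM-CSF) primed with 50 ng ml^−1 E. coli K12 LPS for 3 hours, then exposed 3 hours to compounds (50 μM unless indicated) or activators (nigericin 5 μM; R837, CL097 100 μM). Lytic death measured as LDH release by colorimetric assay, triplicate wells.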

NLRP3 = experiment: Inflammasome stimulation (IL-1β, LDH release) in BMDCs from NLRP3 knockout or ASC knockout mice; assay type: cell-based, mouse; conditions: IL-1β and LDH release
Experimental: For canonical inflammasome activation BMDCs after 7-9 days of differentiation were harvested and counted with a Neubauer Chamber (Hecht Assistant) and the concentration was set to 1 Mio cells ml^−1. 100 μl cell suspension per well were seeded in 96-well plates. The cells were primed with 50 ng ml^−1 E. coli K12 ultra-pure LPS for 3 hours and subsequently treated with canonical inflammasome activators or experimental compounds for 3 hours if not indicated differently (incubation time FIG. 4D, 5, 7, 8, 11, 13-18: 3 h, FIG. 12: 4 h). Concentrations of the stimuli were as follows if not indicated differently: 5 μM nigericin, 100 μM imiquimod (also known as R837), 100 μM CL097, 100 μM R848, […] poly(dA:dT), 300 μg ml^−1 MSU. If an inhibitor was used before stimuli treatment, the inhibitor was added after 2.5 hours of priming and it was incubated for 30 minutes before inflammasome activation. Inhibitors were used as follows: 3 μM MCC950, 45 mM KCl, 30 μM ebselen (2-Phenyl-1,2-benzoselenazol-3-one), 5 μM cytochalasin D (see FIGS. 8, 11, 12 and 17).
All inflammasome stimulations were performed in three technical replicates for each condition. Lytic cell death was determined via LDH release (see FIGS. 8, 13-16 and 18), cytokines quantified in cell-free supernatants via ELISA (see FIGS. 4D, 7-9, 11-19) and cell lysates and supernatants analyzed via immunoblotting (see FIGS. 5A and 5B) as previously described in detail (Gross, Olaf, 2012 “Measuring the inflammasome”, Methods in molecular biology, Clifton, N.J., 844, pp. 199-222. Schneider, Katharina S.; Thomas, Christina J.; Groß, Olaf, 2013, “Inflammasome activation and inhibition in primary murine bone marrow-derived cells, and assays for IL-1α, IL-1β, and caspase-1”, Methods in molecular biology, Clifton, N.J., 1040, pp. 117-135).

[1] = section 1.3, IL-1β release, 5 μM, positive control nigericin 5 μM
[2] = section 1.3, 5 μM, read-out: Average LDH release (% of max.)
[3] = section 1.3, 5 μM, positive control nigericin 5 μM
[4] = IL-1β release, compound 50 μM, positive control nigericin 5 μM
[5] = compound 50 μM, LPS-primed BMDCs
[6] = single replicates, compound 50 μM, LPS-primed BMDCs
[7] = compound 50 μM, positive control nigericin 5 μM
[8] = compound 50 μM, LPS-primed BMDCs, read-out: Average LDH release (% of max.)
[9] = single replicates, compound 50 μM, LPS-primed BMDCs, read-out: LDH release (% of max.)

T1 sequence (Q8R4B8 whole entry): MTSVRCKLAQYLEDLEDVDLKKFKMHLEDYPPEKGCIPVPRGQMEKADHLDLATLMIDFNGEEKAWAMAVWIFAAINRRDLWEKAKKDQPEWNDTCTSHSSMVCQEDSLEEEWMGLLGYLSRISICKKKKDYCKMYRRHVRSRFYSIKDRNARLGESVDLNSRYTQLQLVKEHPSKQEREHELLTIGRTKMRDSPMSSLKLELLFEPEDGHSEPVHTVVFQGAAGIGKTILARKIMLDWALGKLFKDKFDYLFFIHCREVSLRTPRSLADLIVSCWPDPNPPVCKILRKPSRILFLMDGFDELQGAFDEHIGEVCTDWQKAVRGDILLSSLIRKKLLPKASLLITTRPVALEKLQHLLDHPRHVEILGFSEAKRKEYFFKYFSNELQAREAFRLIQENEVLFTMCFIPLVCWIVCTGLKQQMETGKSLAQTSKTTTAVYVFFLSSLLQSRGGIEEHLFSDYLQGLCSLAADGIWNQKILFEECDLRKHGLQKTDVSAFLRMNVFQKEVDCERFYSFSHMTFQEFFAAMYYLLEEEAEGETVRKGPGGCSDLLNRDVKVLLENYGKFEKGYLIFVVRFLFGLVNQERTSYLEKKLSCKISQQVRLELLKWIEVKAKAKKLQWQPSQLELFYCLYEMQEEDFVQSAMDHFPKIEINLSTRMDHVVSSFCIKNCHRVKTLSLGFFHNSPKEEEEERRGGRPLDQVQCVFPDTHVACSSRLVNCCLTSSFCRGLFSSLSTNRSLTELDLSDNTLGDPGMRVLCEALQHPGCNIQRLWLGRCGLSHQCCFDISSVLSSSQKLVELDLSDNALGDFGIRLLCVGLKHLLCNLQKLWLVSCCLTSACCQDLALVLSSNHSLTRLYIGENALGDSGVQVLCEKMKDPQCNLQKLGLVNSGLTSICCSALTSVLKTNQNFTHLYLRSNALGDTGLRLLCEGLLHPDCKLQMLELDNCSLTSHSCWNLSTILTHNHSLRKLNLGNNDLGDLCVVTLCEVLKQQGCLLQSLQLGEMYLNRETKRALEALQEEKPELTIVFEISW

O=C(Nc1cc(C(F)F)ns1)Nc1cc(F)ncc1CO [BRM/BRG1 ATP Inhibitor-1, reference compound]
Average IL-1β (NLRP3 inflammasome; section 1.3, 5 μM): 3.664 ng/mL | Average IL-1β (NLRP3 inflammasome; section 1.3, 50 μM): 5.980 ng/mL | Average IL-1β (NLRP3 inflammasome; section 1.3, 100 μM): 5.023 ng/mL | Average (% positive control) (NLRP3 inflammasome; [1]): 116.295 % positive control | Average (% positive control) (NLRP3 inflammasome; section 1.3, IL-1β release, 50 μM, positive control nigericin 5 μM): 189.7925 % positive control | Average (% positive control) (NLRP3 inflammasome; section 1.3, IL-1β release, 100 μM, positive control nigericin 5 μM): 159.415 % positive control | IL-1β (NLRP3 inflammasome; section 1.3, single replicates, 5 μM): 3.556 ng/mL and 3.899 ng/mL and 3.537 ng/mL | IL-1β (NLRP3 inflammasome; section 1.3, single replicates, 50 μM): 4.561 ng/mL and 6.642 ng/mL and 6.737 ng/mL | IL-1β (NLRP3 inflammasome; section 1.3, single replicates, 100 μM): 7.150 ng/mL and 3.831 ng/mL and 4.087 ng/mL | cytotoxicity at 5 µM (BMDCs; [2]): 16.6% | cytotoxicity at 50 µM (BMDCs; section 1.3, 50 μM, read-out: Average LDH release (% of max.)): 35.4% | cytotoxicity at 100 µM (BMDCs; section 1.3, 100 μM, read-out: Average LDH release (% of max.)): 24.8% | cytotoxicity at 5 µM (BMDCs; section 1.3, single replicates, 5 μM, read-out: LDH release (% of max.)): 14.1% | cytotoxicity at 50 µM (BMDCs; section 1.3, single replicates, 50 μM, read-out: LDH release (% of max.)): 38.5% | cytotoxicity at 100 µM (BMDCs; section 1.3, single replicates, 100 μM, read-out: LDH release (% of max.)): 27% | Average (% positive control) (BMDCs; [3]): 30.921 % positive control | Average (% positive control) (BMDCs; section 1.3, 50 μM, positive control nigericin 5 μM): 65.959 % positive control | Average (% positive control) (BMDCs; section 1.3, 100 μM, positive control nigericin 5 μM): 46.154 % positive control | characteristics of inflammasome activation in cells isolated from NLRP3 knockout mice (NLRP3): do not occur

S=C(Nc1ccccc1)Nc1ccc2ncccc2c1 [AH4, 1-phenyl-3-(quinolin-6-yl) thiourea]
Average IL-1β (NLRP3 inflammasome; 25 μM, AH series table): 2.151 ng/mL | IL-1β (NLRP3 inflammasome; 25 μM, individual replicate values, AH series table): 2.340 ng/mL and 2.250 ng/mL and 1.863 ng/mL | Average IL-1β (NLRP3 inflammasome; 50 μM, AH series table): 10.000 ng/mL | IL-1β (NLRP3 inflammasome; 50 μM, individual replicate values, AH series table): 10.000 ng/mL | Average IL-1β (NLRP3 inflammasome; 75 μM, AH series table): 9.996 ng/mL | IL-1β (NLRP3 inflammasome; 75 μM, individual replicate values, AH series table): 9.988 ng/ml and 10.000 ng/ml (2×) | Average (% positive control) (NLRP3 inflammasome; IL-1β, 25 μM, positive control EN22 10 μM): 21.507 % positive control | Average (% positive control) (NLRP3 inflammasome; IL-1β, 50 μM, positive control EN22 10 μM): 100.000 % positive control | Average (% positive control) (NLRP3 inflammasome; IL-1β, 75 μM, positive control EN22 10 μM): 99.960 % positive control | Average (% positive control) (BMDCs; 25 μM, positive control EN22 10 μM): 24.359 % positive control | Average (% positive control) (BMDCs; 50 μM, positive control EN22 10 μM): 73.142 % positive control | Average (% positive control) (BMDCs; 75 μM, positive control EN22 10 μM): 89.204 % positive control | cytotoxicity at 25 µM (BMDCs; 25 μM, AH series table, read-out: Average LDH release (% of max.)): 18.7% | cytotoxicity at 25 µM (BMDCs; 25 μM, individual replicate values, AH series table, read-out: LDH release (% of max.)): 20% | cytotoxicity at 50 µM (BMDCs; 50 μM, AH series table, read-out: Average LDH release (% of max.)): 56.2% | cytotoxicity at 50 µM (BMDCs; 50 μM, individual replicate values, AH series table, read-out: LDH release (% of max.)): 57.6% | cytotoxicity at 75 µM (BMDCs; 75 μM, individual replicate values, read-out: LDH release (% of max.)): 67.9% | cytotoxicity at 75 µM (BMDCs; 75 μM, read-out: Average LDH release (% of max.)): 68.5% | characteristics of inflammasome activation in cells isolated from NLRP3 knockout mice (NLRP3): do not occur

COCCNC(=O)c1cc(-c2ccn(C3CCCC3)n2)n2ccccc12 [EN54]
characteristics of inflammasome activation in cells isolated from NLRP3 knockout mice (NLRP3): do not occur

COc1cccc(NC(=O)NCc2nc(Cc3ccccc3)no2)c1 [L01.067, 3-[(3-benzyl-1,2,4-oxadiazol-5-yl)methyl]-1-(3-methoxyphenyl)-urea]
Average (% positive control) (NLRP3 inflammasome; [4]): 0.942 % positive control | Average IL-1β (NLRP3 inflammasome; [5]): 0.068 ng/mL | IL-1β (NLRP3 inflammasome; [6]): 0.064 ng/mL and 0.069 ng/mL and 0.070 ng/mL | Average (% positive control) (BMDCs; [7]): 9.336 % positive control | cytotoxicity at 50 µM (BMDCs; [8]): 6.83% | cytotoxicity at 50 µM (BMDCs; [9]): 6.48%

CO[C@@H]1C[C@@H](C[C@H]2CC[C@H](C)[C@H]([C@@H](C)C(=O)O)O2)O[C@]2(O[C@](C)([C@H]3CC[C@@](C)([C@@H]4O[C@@H]([C@H]5O[C@@](O)(CO)[C@H](C)C[C@@H]5C)C[C@@H]4C)O3)C[C@H]2C)[C@@H]1C [Nigericin, Nigericin sodium salt, reference compound]
Average IL-1β (NLRP3 inflammasome; 5 μM, LPS-primed BMDCs): 7.168 ng/mL | Average (% positive control) (NLRP3 inflammasome; IL-1β release, 5 μM, positive control nigericin 5 μM): 100.000 % positive control | Average IL-1β (NLRP3 inflammasome; section 1.3, 5 μM): 3.151 ng/mL | Average (% positive control) (NLRP3 inflammasome; [1]): 100.000 % positive control | IL-1β (NLRP3 inflammasome; section 1.3, single replicates, 5 μM, sodium salt): 3.007 ng/mL and 3.127 ng/mL and 3.318 ng/mL | IL-1β (NLRP3 inflammasome; single replicates, 5 μM, LPS-primed BMDCs, sodium salt): 6.834 ng/mL and 6.400 ng/mL and 7.872 ng/mL and 6.518 ng/mL and 7.890 ng/mL and 7.496 ng/mL | Average (% positive control) (BMDCs; 5 μM, positive control nigericin 5 μM): 100.000 % positive control | cytotoxicity at 5 µM (BMDCs; 5 μM, LPS-primed BMDCs, read-out: Average LDH release (% of max.)): 73.2% | cytotoxicity at 5 µM (BMDCs; [2]): 53.7% | cytotoxicity at 5 µM (BMDCs; single replicates, 5 μM, LPS-primed BMDCs, read-out: LDH release (% of max.)): 61.9% | Average (% positive control) (BMDCs; [3]): 100.000 % positive control

CC(=NO)c1ccc(NC(=O)Nc2ccccc2)cc1 [L01.095, 3-{4-[1-(hydroxyimino)-ethyl]phenyl}-1-phenyl-urea]
Average (% positive control) (NLRP3 inflammasome; [4]): 1.703 % positive control | Average IL-1β (NLRP3 inflammasome; [5]): 0.122 ng/mL | IL-1β (NLRP3 inflammasome; [6]): 0.137 ng/mL and 0.128 ng/mL and 0.102 ng/mL | Average (% positive control) (BMDCs; [7]): 7.959 % positive control | cytotoxicity at 50 µM (BMDCs; [8]): 5.82% | cytotoxicity at 50 µM (BMDCs; [9]): 5.21%

O=C(Nc1ccccc1)Nc1ccc(C(=O)N2CCC2)cc1 [L01.008, 1-[4-(azetidine-1-carbon-yl)phenyl]-3-phenylurea]
Average (% positive control) (NLRP3 inflammasome; [4]): 4.638 % positive control | Average IL-1β (NLRP3 inflammasome; [5]): 0.332 ng/mL | IL-1β (NLRP3 inflammasome; [6]): 0.361 ng/mL and 0.324 ng/mL and 0.313 ng/mL | Average (% positive control) (BMDCs; [7]): 13.046 % positive control | cytotoxicity at 50 µM (BMDCs; [8]): 9.54% | cytotoxicity at 50 µM (BMDCs; [9]): 11%

COc1cccc(NC(=O)N(C)Cc2nc(-c3cccnc3)no2)c1 [L01.136, 1-(3-methoxyphenyl)-3-methyl-3-{[3-(pyridin-3-yl)-1,2,4-oxadiazol-5-yl]methyl}urea]
Average (% positive control) (NLRP3 inflammasome; [4]): 1.025 % positive control | Average IL-1β (NLRP3 inflammasome; [5]): 0.073 ng/mL | IL-1β (NLRP3 inflammasome; [6]): 0.064 ng/mL and 0.073 ng/mL and 0.083 ng/mL | Average (% positive control) (BMDCs; [7]): 9.465 % positive control | cytotoxicity at 50 µM (BMDCs; [8]): 6.92% | cytotoxicity at 50 µM (BMDCs; [9]): 6.95%

O=C(Nc1ccccc1)Nc1ccc(NC(=O)c2ccco2)cc1 [L01.064, N-{4-[(phenylcarbamo-yl)amino]phenyl}furan-2-carboxamide]
Average (% positive control) (NLRP3 inflammasome; [4]): 1.014 % positive control | Average IL-1β (NLRP3 inflammasome; [5]): 0.073 ng/mL | IL-1β (NLRP3 inflammasome; [6]): 0.065 ng/mL and 0.054 ng/mL and 0.100 ng/mL | Average (% positive control) (BMDCs; [7]): 11.958 % positive control | cytotoxicity at 50 µM (BMDCs; [8]): 8.75% | cytotoxicity at 50 µM (BMDCs; [9]): 8.96%

— patent US20240277658A1, “NLRP3 ACTIVATORS FOR USE IN THE TREATMENT OF INFECTIOUS DISEASES OR CANCER BY ACTIVATING NLRP3 INFLAMMASOME” (ALBERT-LUDWIGS-UNIVERSITÄT FREIBURG, priority 2020, published 2024)
